# Source: patent US6737383B1, “Herbicidal oxadiazolidines” (priority 1999, dated 2004)
# Experiments:
# crabgrass = assay: Test B pre/postemergence crabgrass; format: in vivo, Digitaria sanguinalis
# In short: (§1)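 Herbicidal effect was estimated by eye on a ten-point control scale after plants spent twelve to sixteen days in a greenhouse following soil or foliar treatment. Foliar sprays targeted plants at one to four leaves; all doses were formulated in a non-phytotoxic solvent with surfactant.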
# blackgrass = assay: Test B pre/postemergence blackgrass; format: in vivo, Alopecurus myosuroides
# In short: as §1
# bedstraw = assay: Test B pre/postemergence bedstraw; format: in vivo, Galium aparine
# In short: as §1
# smallflower flatsedge = assay: Test B flood test smallflower flatsedge; format: in vivo, Cyperus difformis
# In short: (§2)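 Flood test on plants grown to the 2-leaf stage; treated plants kept in greenhouse twelve to sixteen days, then visually rated against controls on a 0 (no effect) to 10 (complete control) scale.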
# purple nutsedge = assay: Test B pre/postemergence purple nutsedge; format: in vivo, Cyperus rotundus
# In short: as §1
# bamyardgrass = assay: Test B flood test barnyardgrass; format: in vivo, Echinochloa crus-galli
# In short: as §2
# cocklebur = assay: Test B pre/postemergence cocklebur; format: in vivo, Xanthium strumarium
# In short: as §1
# corn = assay: Test B pre/postemergence corn; format: in vivo, Zea mays
# In short: as §1
# sugar beet = assay: Test B pre/postemergence sugar beet; format: in vivo, Beta vulgaris
# In short: as §1
# rice = assay: Test B flood test rice; format: in vivo, Oryza sativa
# In short: as §2
# pigweed = assay: Test B pre/postemergence pigweed; format: in vivo, Amaranthus retroflexus
# In short: as §1
# giant foxtail = assay: Test B pre/postemergence giant foxtail; format: in vivo, Setaria faberii
# In short: as §1
# velvetleaf = assay: Test B pre/postemergence velvetleaf; format: in vivo, Abutilon theophrasti
# In short: as §1
# soybean = assay: Test B pre/postemergence soybean; format: in vivo, Glycine max
# In short: as §1
# surinam grass = assay: Test B pre/postemergence surinam grass; format: in vivo, Brachiaria decumbens
# In short: as §1
# wild oat = assay: Test B pre/postemergence wild oat; format: in vivo, Avena fatua
# In short: as §1
# [1] = Postemergence, Rate 62 g/ha, scale 0 to 10, 0 is no effect, 10 is complete control
# [2] = Postemergence, Rate 250 g/ha, scale 0 to 10, 0 no effect, 10 complete control
# [3] = Preemergence, Rate 62 g/ha, scale 0 to 10 (0 no effect, 10 complete control)
# [4] = Preemergence, Rate 125 g/ha, scale 0 to 10 (0 no effect, 10 complete control)
# [5] = Preemergence, Rate 250 g/ha, scale of 0 to 10 where 0 is no effect and 10 is complete control
# [6] = Preemergence, Rate 500 g/ha, scale 0 (no effect) to 10 (complete control)
# [7] = Rate 125 g/ha, Postemergence, scale 0 to 10, 0 no effect, 10 complete control
# [8] = Rate 500 g/ha, Postemergence, scale 0 to 10, 0 no effect, 10 complete control
# [9] = Rate 125 g/ha, Postemergence section (flood test species), scale 0 to 10, 0 no effect, 10 complete control
# [10] = Rate 500 g/ha, listed under Postemergence (flood test species), scale 0 to 10, 0 no effect, 10 complete control
# [11] = flood test, listed under Postemergence, Rate 250 g/ha, scale 0 to 10, 0 no effect, 10 complete control
smiles,measurement,setting,value
Cc1cc(C)c(-n2c(=O)on(C(=O)N(c3ccc(F)cc3)C(C)C)c2=O)c(C)c1 [Compound 60],Crabgrass plant response rating,crabgrass; [1],0
same,Crabgrass plant response rating,crabgrass; [2],1
same,Crabgrass plant response rating,crabgrass; [3],0
same,"Plant response rating, Crabgrass",crabgrass; [4],1
same,"Plant response rating, Crabgrass",crabgrass; [5],1
same,Crabgrass plant response rating,crabgrass; [6],1
same,Crabgrass plant response rating,crabgrass; [7],0
same,Crabgrass plant response rating,crabgrass; [8],2
same,Blackgrass plant response rating,blackgrass; [1],0
same,Blackgrass plant response rating,blackgrass; [2],0
same,Blackgrass plant response rating,blackgrass; [3],0
same,"Plant response rating, Blackgrass",blackgrass; [4],0
same,"Plant response rating, Blackgrass",blackgrass; [5],0
same,Blackgrass plant response rating,blackgrass; [6],0
same,Blackgrass plant response rating,blackgrass; [7],0
same,Blackgrass plant response rating,blackgrass; [8],0
same,Bedstraw plant response rating,bedstraw; [2],7
same,Bedstraw plant response rating,bedstraw; [3],0
same,"Plant response rating, Bedstraw",bedstraw; [4],0
same,"Plant response rating, Bedstraw",bedstraw; [5],0
same,Bedstraw plant response rating,bedstraw; [6],5
same,Bedstraw plant response rating,bedstraw; [7],7
same,Bedstraw plant response rating,bedstraw; [8],7
same,S. Flatsedge plant response rating,smallflower flatsedge; [1],0
same,S. Flatsedge plant response rating,smallflower flatsedge; [9],0
same,S. Flatsedge plant response rating,smallflower flatsedge; [10],0
same,S. Flatsedge plant response rating,smallflower flatsedge; [11],0
same,Nutsedge plant response rating,purple nutsedge; [1],0
same,Nutsedge plant response rating,purple nutsedge; [2],0
same,Nutsedge plant response rating,purple nutsedge; [3],0
same,"Plant response rating, Nutsedge",purple nutsedge; [4],0
same,"Plant response rating, Nutsedge",purple nutsedge; [5],0
same,Nutsedge plant response rating,purple nutsedge; [6],0
same,Nutsedge plant response rating,purple nutsedge; [7],0
same,Nutsedge plant response rating,purple nutsedge; [8],0
same,Barnyardgrass plant response rating,bamyardgrass; [1],0
same,Barnyardgrass plant response rating,bamyardgrass; [9],0
same,Barnyardgrass plant response rating,bamyardgrass; [10],0
same,Barnyardgrass plant response rating,bamyardgrass; [11],0
same,Cocklebur plant response rating,cocklebur; [1],0
same,Cocklebur plant response rating,cocklebur; [2],0
same,Cocklebur plant response rating,cocklebur; [3],0
same,"Plant response rating, Cocklebur",cocklebur; [4],0
same,Cocklebur plant response rating,cocklebur; [7],0
same,Cocklebur plant response rating,cocklebur; [8],0
same,Corn plant response rating,corn; [1],0
same,Corn plant response rating,corn; [2],0
same,Corn plant response rating,corn; [3],0
same,"Plant response rating, Corn",corn; [4],0
same,"Plant response rating, Corn",corn; [5],0
same,Corn plant response rating,corn; [6],0
same,Corn plant response rating,corn; [7],0
same,Corn plant response rating,corn; [8],0
same,Sugarbeets plant response rating,sugar beet; [1],0
same,Sugarbeets plant response rating,sugar beet; [2],0
same,Sugarbeets plant response rating,sugar beet; [3],0
same,"Plant response rating, Sugarbeets",sugar beet; [4],0
same,"Plant response rating, Sugarbeets",sugar beet; [5],3
same,Sugarbeets plant response rating,sugar beet; [6],5
same,Sugarbeets plant response rating,sugar beet; [7],0
same,Sugarbeets plant response rating,sugar beet; [8],0
same,Rice plant response rating,rice; [1],0
same,Rice plant response rating,rice; [9],0
same,Rice plant response rating,rice; [10],0
same,Rice plant response rating,rice; [11],0
same,Redroot pigweed plant response rating,pigweed; [1],2
same,Redroot pigweed plant response rating,pigweed; [2],4
same,Redroot pigweed plant response rating,pigweed; [3],0
same,"Plant response rating, Redroot pigweed",pigweed; [4],0
same,"Plant response rating, Redroot pigweed",pigweed; [5],0
same,Redroot pigweed plant response rating,pigweed; [6],0
same,Redroot pigweed plant response rating,pigweed; [7],4
same,Redroot pigweed plant response rating,pigweed; [8],6
same,Giant foxtail plant response rating,giant foxtail; [1],0
same,Giant foxtail plant response rating,giant foxtail; [2],0
same,Giant foxtail plant response rating,giant foxtail; [3],3
same,"Plant response rating, Giant foxtail",giant foxtail; [4],3
same,"Plant response rating, Giant foxtail",giant foxtail; [5],4
same,Giant foxtail plant response rating,giant foxtail; [6],5
same,Giant foxtail plant response rating,giant foxtail; [7],0
same,Giant foxtail plant response rating,giant foxtail; [8],0
same,Velvetleaf plant response rating,velvetleaf; [1],0
same,Velvetleaf plant response rating,velvetleaf; [2],0
same,Velvetleaf plant response rating,velvetleaf; [3],0
same,"Plant response rating, Velvetleaf",velvetleaf; [4],0
same,"Plant response rating, Velvetleaf",velvetleaf; [5],0
same,Velvetleaf plant response rating,velvetleaf; [6],0
same,Velvetleaf plant response rating,velvetleaf; [7],0
same,Velvetleaf plant response rating,velvetleaf; [8],0
same,Soybean plant response rating,soybean; [1],2
same,Soybean plant response rating,soybean; [2],3
same,Soybean plant response rating,soybean; [3],0
same,"Plant response rating, Soybean",soybean; [4],0
same,"Plant response rating, Soybean",soybean; [5],0
same,Soybean plant response rating,soybean; [6],0
same,Soybean plant response rating,soybean; [7],3
same,Soybean plant response rating,soybean; [8],3
same,B. signalgrass plant response rating,surinam grass; [1],0
same,B. signalgrass plant response rating,surinam grass; [2],0
same,B. signalgrass plant response rating,surinam grass; [3],0
same,"Plant response rating, B. signalgrass",surinam grass; [4],0
same,"Plant response rating, B. signalgrass",surinam grass; [5],0
same,B. signalgrass plant response rating,surinam grass; [6],0
same,B. signalgrass plant response rating,surinam grass; [7],0
same,B. signalgrass plant response rating,"surinam grass; Rate 500 g/ha, Postemergence, scale of 0 to 10 where 0 is no effect and 10 is complete control",0
same,Wild oats plant response rating,wild oat; [1],0
same,Wild oats plant response rating,wild oat; [2],0
same,Wild oats plant response rating,wild oat; [3],0
same,"Plant response rating, Wild oats",wild oat; [4],0
same,"Plant response rating, Wild oats",wild oat; [5],0
same,Wild oats plant response rating,wild oat; [6],0
same,Wild oats plant response rating,wild oat; [7],0
same,Wild oats plant response rating,wild oat; [8],0
